# Where two headings read alike, the source gives them in different places.
# How the values were obtained:
# JAK1 = target: T1, JAK1 (Homo sapiens, UniProt P23458); test: Broad kinase inhibition screen, recombinant kinase; assay type: biochemical; settings: broad kinase inhibition screens
# T1 construct: purchased Thermo Fisher Scientific or Reaction Biology, Inc. (screening service)
# From the text: (§1) Data from these screens are available on request.
# JAK2 = target: T2, JAK2 (Homo sapiens, UniProt O60674); test: Broad kinase inhibition screen, recombinant kinase; assay type: biochemical; settings: broad kinase inhibition screens
# T2 construct: purchased Thermo Fisher Scientific or Reaction Biology, Inc. (screening service)
# T2 sequence (O60674 whole entry): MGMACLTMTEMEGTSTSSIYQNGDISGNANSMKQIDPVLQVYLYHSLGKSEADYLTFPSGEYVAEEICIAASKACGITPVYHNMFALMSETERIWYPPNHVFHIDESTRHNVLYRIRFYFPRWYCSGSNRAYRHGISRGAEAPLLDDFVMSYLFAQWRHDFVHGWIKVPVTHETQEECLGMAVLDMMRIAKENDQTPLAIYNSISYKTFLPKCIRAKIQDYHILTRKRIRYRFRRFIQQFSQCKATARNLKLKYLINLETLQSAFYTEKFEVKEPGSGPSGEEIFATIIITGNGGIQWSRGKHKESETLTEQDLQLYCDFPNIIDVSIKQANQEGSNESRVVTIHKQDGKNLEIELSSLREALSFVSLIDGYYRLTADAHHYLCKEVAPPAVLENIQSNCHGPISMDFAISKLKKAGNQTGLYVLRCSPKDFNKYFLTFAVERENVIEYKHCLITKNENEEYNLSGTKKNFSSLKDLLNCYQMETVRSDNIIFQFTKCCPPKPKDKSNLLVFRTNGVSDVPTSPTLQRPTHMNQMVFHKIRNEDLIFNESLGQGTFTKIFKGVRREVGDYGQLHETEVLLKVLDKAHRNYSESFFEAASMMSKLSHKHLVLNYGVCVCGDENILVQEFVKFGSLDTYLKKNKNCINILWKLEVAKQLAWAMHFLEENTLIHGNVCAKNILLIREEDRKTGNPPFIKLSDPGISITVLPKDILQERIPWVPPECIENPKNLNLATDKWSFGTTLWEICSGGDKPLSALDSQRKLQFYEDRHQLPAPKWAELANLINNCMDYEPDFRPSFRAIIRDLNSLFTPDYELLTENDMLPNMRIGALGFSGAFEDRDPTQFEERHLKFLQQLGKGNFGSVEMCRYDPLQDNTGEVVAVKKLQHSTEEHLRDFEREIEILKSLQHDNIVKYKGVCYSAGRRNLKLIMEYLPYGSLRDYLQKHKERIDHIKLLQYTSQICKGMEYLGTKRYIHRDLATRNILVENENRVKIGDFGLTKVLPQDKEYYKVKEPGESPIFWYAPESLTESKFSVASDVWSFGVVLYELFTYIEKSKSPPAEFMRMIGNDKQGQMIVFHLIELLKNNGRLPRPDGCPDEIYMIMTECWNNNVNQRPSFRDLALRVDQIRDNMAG
# From the text: as §1
# RSK-2 = target: T3, RSK-2 (Homo sapiens, UniProt P51812); test: Broad kinase inhibition screen, recombinant kinase; assay type: biochemical; settings: broad kinase inhibition screens
# T3 construct: purchased Thermo Fisher Scientific or Reaction Biology, Inc. (screening service)
# T3 sequence (P51812 whole entry): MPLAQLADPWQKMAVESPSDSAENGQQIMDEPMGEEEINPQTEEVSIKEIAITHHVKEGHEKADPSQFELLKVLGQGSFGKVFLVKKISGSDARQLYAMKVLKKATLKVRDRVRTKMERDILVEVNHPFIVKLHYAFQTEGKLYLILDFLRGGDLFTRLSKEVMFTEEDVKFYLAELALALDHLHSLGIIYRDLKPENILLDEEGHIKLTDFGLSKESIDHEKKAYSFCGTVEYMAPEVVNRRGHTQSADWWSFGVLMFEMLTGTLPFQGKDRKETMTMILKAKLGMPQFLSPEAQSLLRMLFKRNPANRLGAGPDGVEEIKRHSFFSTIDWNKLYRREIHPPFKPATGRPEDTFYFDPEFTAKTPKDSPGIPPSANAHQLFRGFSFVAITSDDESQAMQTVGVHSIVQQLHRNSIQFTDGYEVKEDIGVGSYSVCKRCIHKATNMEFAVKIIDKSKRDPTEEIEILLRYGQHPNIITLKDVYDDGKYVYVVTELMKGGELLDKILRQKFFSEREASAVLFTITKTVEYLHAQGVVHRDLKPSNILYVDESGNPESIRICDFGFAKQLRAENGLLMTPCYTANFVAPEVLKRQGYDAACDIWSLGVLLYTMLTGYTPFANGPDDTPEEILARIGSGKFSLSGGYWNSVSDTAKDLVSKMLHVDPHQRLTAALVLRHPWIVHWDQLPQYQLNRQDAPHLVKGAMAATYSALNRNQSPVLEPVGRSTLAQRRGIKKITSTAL
# From the text: as §1
# [1] = test system: Ba/F3 cells expressing various mutant forms of FLT3; test: Growth inhibition of Ba/F3 cells; assay type: cell-based, murine; settings: Mus musculus, BaF3; Ba/F3, various mutant forms of FLT3, range
# Procedure: MV-4-11 (CRL-9591), HS-5 (CRL-3611), and KG1a (CCL-246.1) cells were obtained from ATCC. MOLM-13 (ACC 554) and MOLM-14 (ACC 777) were obtained from DSMZ (Deutsche Sammlung von Mikroorganismen und Zellkulturen). MOLM-14 cells contain one WT FLT3 allele and one FLT3-ITD allele. MOLM-14 FLT3-ITD/F691 cells were prepared by transfection of MOLM-14 cells with a vector expressing the FLT3 TKD F691L mutation. MV-4-11 cells expressing NRAS^G12D were prepared by transduction with a lentiviral vector encoding the NRAS^G12D mutation. Assays using a panel of parental Ba/F3 into which an additional copy of either WT or a mutant form of FLT3 was introduced were performed at Kyinno Biotechnology Co., Ltd. All cell lines were short tandem repeat authenticated at ATCC or at DSMZ when originally obtained, and no further authentication was done after receipt of the cells in the laboratory.
# Assays using Ba/F3 cells expressing WT and mutant forms of FLT3 were performed by Kyinno Biotechnology. The cells were cultured in the medium recommended by the source for each cell line. Growth inhibition assays were performed using either Cell Titer 96 Aqueous One Solution Cell Proliferation assay (Promega, # G3581) or CCK8 (Dojindo, # CK-04). […] IC50 values were determined from growth inhibition curves fitted using GraphPad Prism and a nonlinear regression model with sigmoidal dose response. […]
# MOLM-13 cells = test: Growth inhibition of AML cell line; assay type: cell-based; settings: Homo sapiens, mean ± SD
# Procedure: (§2) MV-4-11 cells expressing NRAS^G12D were prepared by transduction with a lentiviral vector encoding the NRAS^G12D mutation. Assays using a panel of parental Ba/F3 into which an additional copy of either WT or a mutant form of FLT3 was introduced were performed at Kyinno Biotechnology Co., Ltd. All cell lines were short tandem repeat authenticated at ATCC or at DSMZ when originally obtained, and no further authentication was done after receipt of the cells in the laboratory.
# (§3) Assays using Ba/F3 cells expressing WT and mutant forms of FLT3 were performed by Kyinno Biotechnology. The cells were cultured in the medium recommended by the source for each cell line. Growth inhibition assays were performed using either Cell Titer 96 Aqueous One Solution Cell Proliferation assay (Promega, # G3581) or CCK8 (Dojindo, # CK-04). […] IC50 values were determined from growth inhibition curves fitted using GraphPad Prism and a nonlinear regression model with sigmoidal dose response. Unless otherwise indicated, data are presented as mean ± SEM.
# MOLM-14 cells (parental) = test: Growth inhibition of AML cell line; assay type: cell-based, human; settings: Homo sapiens, MOLM-14
# Procedure: as §2, §3
# TUS/R line 1 (MOLM-14) = test: Growth inhibition of TUS-resistant subline; assay type: cell-based; settings: Homo sapiens, MOLM-14, read-out: IC50 (nmol/L), Mean ± SEM, TUS/R line 1
# TUS/R line 2 (MOLM-14) = test: Growth inhibition of TUS-resistant subline; assay type: cell-based; settings: Homo sapiens, MOLM-14, read-out: IC50 (nmol/L), Mean ± SEM, TUS/R line 2
# TUS/R line 3 (MOLM-14) = test: Growth inhibition of TUS-resistant subline; assay type: cell-based, human; settings: Homo sapiens
# [2] = test system: MV-4-11 NRAS G12D Clone 15; test: Growth inhibition of NRAS G12D clone; assay type: cell-based, human
# Procedure: as §2, §3
# [3] = test system: MV-4-11 NRAS G12D Clone 1; test: Growth inhibition of NRAS G12D clone; assay type: cell-based, human
# Procedure: as §2, §3
# [4] = test system: MV-4-11 NRAS G12D Clone 4; test: Growth inhibition of NRAS G12D clone; assay type: cell-based, human; settings: Homo sapiens, MV4-11; MV-4-11 NRAS G12D, high expression; mean ± SEM; read-out: GI50 (nM) Clone 4
# Procedure: as §2, §3
# [5] = Pharmacokinetics and tissue distribution in mice; assay type: in vivo
# Pharmacokinetics in dog = assay type: in vivo
# CYP2C8 = CYP2C8 (Homo sapiens, UniProt P10632); test: CYP inhibition; assay type: in vitro ADME
# Chain of CYP2C8 (P10632 whole entry): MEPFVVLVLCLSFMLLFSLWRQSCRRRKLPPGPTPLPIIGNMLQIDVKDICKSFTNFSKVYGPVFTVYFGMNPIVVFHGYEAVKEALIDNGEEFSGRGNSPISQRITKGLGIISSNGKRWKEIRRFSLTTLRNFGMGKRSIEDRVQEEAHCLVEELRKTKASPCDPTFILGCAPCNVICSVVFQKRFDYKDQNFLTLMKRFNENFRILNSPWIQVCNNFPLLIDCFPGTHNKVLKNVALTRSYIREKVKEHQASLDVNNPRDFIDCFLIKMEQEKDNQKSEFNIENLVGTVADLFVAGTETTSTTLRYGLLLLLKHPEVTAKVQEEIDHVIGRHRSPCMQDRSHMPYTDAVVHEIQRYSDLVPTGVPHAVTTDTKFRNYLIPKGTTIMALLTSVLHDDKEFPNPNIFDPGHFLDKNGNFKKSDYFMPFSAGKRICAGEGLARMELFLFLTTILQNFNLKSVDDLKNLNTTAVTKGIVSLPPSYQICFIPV
# [6] = Repeat daily dose toxicity and safety pharmacology in rats; assay type: in vivo
# From the text: (§4) In both species, all adverse events were reversible. There were no alterations in clinical chemistry parameters. Neuropharmacology and respiratory function assessment in rats disclosed no concerns.
# [7] = Repeat daily dose toxicity in dogs; assay type: in vivo
# From the text: as §4
# [8] = test system: MCL1 in parental MOLM-14 cells; test: Western blot of apoptotic proteins; settings: 75 nmol/L TUS, 48-hour exposure
# [9] = 13 to […]-fold increase in NRAS G12D expression
# [10] = Homo sapiens, MV4-11, MV-4-11 NRAS G12D, mean ± SEM
# [11] = mouse, plasma, mice, oral doses of 1, 3, 10, and 30 mg/kg
# T1 sequence (P23458 whole entry): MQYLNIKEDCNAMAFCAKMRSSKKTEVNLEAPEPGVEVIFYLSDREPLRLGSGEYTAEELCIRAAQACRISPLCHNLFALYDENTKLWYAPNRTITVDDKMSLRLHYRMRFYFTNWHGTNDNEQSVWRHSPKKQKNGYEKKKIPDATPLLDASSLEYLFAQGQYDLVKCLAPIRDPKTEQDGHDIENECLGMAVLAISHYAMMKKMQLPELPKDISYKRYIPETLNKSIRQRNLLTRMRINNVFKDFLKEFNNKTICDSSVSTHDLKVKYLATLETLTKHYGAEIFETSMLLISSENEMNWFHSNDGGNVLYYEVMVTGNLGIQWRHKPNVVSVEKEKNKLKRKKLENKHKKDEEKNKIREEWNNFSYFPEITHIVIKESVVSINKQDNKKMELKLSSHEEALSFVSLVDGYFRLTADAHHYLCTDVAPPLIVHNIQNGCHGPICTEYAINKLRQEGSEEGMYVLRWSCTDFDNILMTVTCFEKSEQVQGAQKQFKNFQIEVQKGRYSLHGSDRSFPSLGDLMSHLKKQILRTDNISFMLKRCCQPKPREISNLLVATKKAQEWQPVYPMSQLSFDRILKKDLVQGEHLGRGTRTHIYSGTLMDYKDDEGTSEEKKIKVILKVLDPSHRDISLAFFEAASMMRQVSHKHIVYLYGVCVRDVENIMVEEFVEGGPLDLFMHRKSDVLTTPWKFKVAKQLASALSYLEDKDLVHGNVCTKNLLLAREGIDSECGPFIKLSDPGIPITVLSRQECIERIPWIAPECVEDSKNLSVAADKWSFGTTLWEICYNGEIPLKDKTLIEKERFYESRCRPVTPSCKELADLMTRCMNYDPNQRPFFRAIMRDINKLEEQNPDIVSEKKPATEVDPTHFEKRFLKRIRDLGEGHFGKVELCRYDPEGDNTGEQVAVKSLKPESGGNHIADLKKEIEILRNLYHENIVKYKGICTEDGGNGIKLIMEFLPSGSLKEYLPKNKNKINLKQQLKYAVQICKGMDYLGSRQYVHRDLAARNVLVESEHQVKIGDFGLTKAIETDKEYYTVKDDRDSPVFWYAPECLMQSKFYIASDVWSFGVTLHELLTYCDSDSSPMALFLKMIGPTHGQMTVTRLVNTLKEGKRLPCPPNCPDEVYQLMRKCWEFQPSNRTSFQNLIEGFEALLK
structure (smiles),measurement,setting,value
"Cc1ccc2c(-c3nc(Nc4cc(CN5C[C@@H](C)N[C@@H](C)C5)cc(C5CC5)c4)ncc3Cl)c[nH]c2c1 [TUS, Tuspetinib]",IC50,JAK1,2.9 nM
same,IC50,JAK2,6.3 nM
same,IC50,RSK-2,9.7 nM
same,GI50,[1],2.5 to 56 nM
same,GI50,MOLM-13 cells,5.2 ± 0.9 nM
same,IC50,"MOLM-14 cells (parental); growth inhibition, three independent experiments, read-out: IC50 (nmol/L), Mean ± SEM, MOLM-14 parental",2.3 ± 0.6 nmol/L
same,GI50,"MOLM-14 cells (parental); mean ± SEM (Supplementary Table 6), read-out: GI50 (nM) Parental MOLM-14 (converted)",2.3 ± 0.6 nM
same,GI50,"MOLM-14 cells (parental); mean ± SD (Supplementary Table 4), read-out: GI50",2.9 ± 1.2 nM
same,IC50,TUS/R line 1 (MOLM-14),183 ± 69.5 nmol/L
same,IC50,TUS/R line 2 (MOLM-14),120 ± 29.4 nmol/L
same,GI50,"TUS/R line 3 (MOLM-14); MOLM-14, read-out: GI50 (nM) TUS/R line 3, mean ± SEM (Supplementary Table 6)",108 ± 24 nM
same,IC50,"TUS/R line 3 (MOLM-14); MOLM-14, read-out: IC50 (nmol/L), Mean ± SEM, TUS/R line 3",108 ± 24 nmol/L
same,"change in sensitivity, clone 15",[2]; [9],did not alter sensitivity
same,GI50,[2]; [10],7.7 ± 3.1 nM
same,"change in sensitivity, clone 1",[3]; [9],did not alter sensitivity
same,GI50,[3]; [10],8.7 ± 3 nM
same,GI50,[4],69.9 ± 7.4 nM
same,dose proportionality of systemic exposure,"[5]; mice, oral 1 to 30 mg/kg",greater than dose proportional
same,clearance,"[5]; mouse, plasma, male mice, single intravenous dose of 3 mg/kg",5 mL/min/kg
same,Vd,"[5]; mouse, plasma, male mice, single intravenous dose of 3 mg/kg, read-out: Vss",2.4 L/kg
same,half-life,"[5]; mouse, plasma, male mice, single intravenous dose of 3 mg/kg, read-out: terminal plasma half-life (converted)",5.5 h
same,Tmax,[5]; [11],1 to 4 h
same,bioavailability,[5]; [11],21.4 to 47.2%
same,dose proportionality of AUC,Pharmacokinetics in dog,linearly proportional to dose
same,bioavailability,"Pharmacokinetics in dog; in vivo, oral",99%
same,Ki,CYP2C8,< 1000 nM
same,Neuropharmacology and respiratory function assessment,[6],no concerns
same,main target organ of toxicity,[6]; repeat daily dose up to 4 weeks,lymphoid organs
same,main toxicity findings,"[7]; dogs, repeat daily dose up to 4 weeks","leucocyte depletion, decreased thymus and spleen weights, and tremors"
same,cardiovascular effects,[7]; single dose and 4-week dog toxicology studies,No treatment-related cardiovascular effects
same,reduction of MCL1,[8],70%

# Reference: publication PMC11725774 (Cancer Research Communications, 2025)
